Measurements as given in ChEMBL document CHEMBL1201862, “PubChem BioAssay data set” (2004).
Active and inactive are the calls of the source.

Key:
Caspase-3 = target: T1, Caspase-3 (Homo sapiens, UniProt P42574); format: functional;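 also: Dose-response selectivity test against caspase-3 for candidate inhibitors of sentrin-specific proteases (SENPs)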
T1 sequence (P42574 whole entry): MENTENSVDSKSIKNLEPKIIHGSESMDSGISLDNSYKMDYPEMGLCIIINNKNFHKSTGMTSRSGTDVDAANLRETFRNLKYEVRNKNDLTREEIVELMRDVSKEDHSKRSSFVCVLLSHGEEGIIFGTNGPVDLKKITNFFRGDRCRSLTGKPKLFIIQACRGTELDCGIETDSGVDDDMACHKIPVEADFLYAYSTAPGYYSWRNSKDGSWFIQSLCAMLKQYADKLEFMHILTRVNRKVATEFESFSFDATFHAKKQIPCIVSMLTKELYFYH

[1] = target: T2, Sentrin-specific protease 7 (Homo sapiens, UniProt Q9BQF6); format: functional;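 also: Luminescence-based dose-response confirmation of ultra-high-throughput screening hits, measuring inhibition of SENP7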
T2 sequence (Q9BQF6 whole entry): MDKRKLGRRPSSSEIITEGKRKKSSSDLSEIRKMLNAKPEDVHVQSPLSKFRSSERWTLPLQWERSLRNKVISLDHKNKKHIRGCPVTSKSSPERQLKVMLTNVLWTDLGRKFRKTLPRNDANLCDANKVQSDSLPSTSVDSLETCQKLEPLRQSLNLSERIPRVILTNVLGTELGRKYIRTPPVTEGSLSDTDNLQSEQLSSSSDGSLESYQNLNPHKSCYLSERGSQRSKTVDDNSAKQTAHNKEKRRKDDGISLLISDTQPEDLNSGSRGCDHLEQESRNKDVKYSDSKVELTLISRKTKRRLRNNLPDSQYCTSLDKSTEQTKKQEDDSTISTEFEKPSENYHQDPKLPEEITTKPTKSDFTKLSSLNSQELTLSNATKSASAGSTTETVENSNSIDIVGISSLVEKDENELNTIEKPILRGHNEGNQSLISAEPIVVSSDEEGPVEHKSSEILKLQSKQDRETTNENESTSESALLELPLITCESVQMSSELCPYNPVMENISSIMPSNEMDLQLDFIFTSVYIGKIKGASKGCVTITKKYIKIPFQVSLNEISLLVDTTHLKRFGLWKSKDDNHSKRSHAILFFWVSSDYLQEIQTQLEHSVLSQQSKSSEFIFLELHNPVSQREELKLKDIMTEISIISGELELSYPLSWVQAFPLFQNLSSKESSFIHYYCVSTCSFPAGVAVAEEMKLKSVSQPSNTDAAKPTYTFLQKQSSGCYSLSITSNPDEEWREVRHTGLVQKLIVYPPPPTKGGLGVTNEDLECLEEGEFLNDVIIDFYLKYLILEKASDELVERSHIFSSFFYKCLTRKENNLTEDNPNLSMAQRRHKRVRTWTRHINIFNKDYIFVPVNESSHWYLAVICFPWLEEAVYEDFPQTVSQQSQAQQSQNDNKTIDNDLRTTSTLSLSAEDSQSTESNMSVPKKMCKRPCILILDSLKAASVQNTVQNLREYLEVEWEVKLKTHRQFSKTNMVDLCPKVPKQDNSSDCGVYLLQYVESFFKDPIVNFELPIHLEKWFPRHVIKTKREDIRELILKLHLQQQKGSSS

[2] = target: T3, Sentrin-specific protease 6 (Homo sapiens, UniProt Q9GZR1); format: functional;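 also: Luminescence-based dose-response confirmatory assay of SENP6 inhibition, following up an ultra-high-throughput screen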
T3 sequence (Q9GZR1 whole entry): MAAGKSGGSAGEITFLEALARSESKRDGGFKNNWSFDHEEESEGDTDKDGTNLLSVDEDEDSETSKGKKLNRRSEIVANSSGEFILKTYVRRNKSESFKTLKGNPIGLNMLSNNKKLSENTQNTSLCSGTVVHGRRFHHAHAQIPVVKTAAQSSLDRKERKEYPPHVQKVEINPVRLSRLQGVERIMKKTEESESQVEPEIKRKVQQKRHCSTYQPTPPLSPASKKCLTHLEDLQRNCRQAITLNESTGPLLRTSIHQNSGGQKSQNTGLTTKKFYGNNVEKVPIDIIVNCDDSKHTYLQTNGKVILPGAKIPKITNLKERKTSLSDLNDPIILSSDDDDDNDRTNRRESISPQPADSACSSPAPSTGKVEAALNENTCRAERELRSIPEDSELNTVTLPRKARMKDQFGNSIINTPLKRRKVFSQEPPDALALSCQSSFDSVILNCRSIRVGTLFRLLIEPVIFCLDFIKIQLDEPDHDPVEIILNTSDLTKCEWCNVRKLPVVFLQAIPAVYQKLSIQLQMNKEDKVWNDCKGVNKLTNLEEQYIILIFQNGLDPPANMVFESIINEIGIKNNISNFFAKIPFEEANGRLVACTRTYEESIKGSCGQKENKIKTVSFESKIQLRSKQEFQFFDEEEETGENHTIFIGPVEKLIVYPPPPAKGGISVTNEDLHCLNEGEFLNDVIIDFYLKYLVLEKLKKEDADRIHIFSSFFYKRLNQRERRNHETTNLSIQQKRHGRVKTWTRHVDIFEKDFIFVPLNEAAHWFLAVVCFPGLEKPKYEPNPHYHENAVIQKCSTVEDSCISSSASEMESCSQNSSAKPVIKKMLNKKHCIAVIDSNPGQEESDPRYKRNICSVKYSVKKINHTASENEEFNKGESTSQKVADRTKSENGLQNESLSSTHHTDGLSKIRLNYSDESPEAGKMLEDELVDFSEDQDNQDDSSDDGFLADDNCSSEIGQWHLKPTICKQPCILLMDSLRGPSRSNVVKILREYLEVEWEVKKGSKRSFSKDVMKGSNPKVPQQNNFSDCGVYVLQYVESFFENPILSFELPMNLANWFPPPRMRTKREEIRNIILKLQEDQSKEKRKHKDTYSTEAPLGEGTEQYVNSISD

[3] = target: T4, Sentrin-specific protease 8 (Homo sapiens, UniProt Q96LD8); format: functional;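 also: luminescence read-out of SENP8 inhibition, dose-response confirmation following an ultra-high-throughput screen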
T4 sequence (Q96LD8 whole entry): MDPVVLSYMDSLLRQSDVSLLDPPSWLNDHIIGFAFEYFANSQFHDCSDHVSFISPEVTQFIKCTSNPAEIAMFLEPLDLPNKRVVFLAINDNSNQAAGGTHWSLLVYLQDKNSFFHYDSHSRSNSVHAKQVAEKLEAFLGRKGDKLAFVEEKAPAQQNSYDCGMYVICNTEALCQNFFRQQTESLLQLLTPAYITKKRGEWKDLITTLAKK

[4] = target: Dual specificity tyrosine-phosphorylation-regulated kinase 1A (Rattus norvegicus, UniProt Q63470); format: biochemical, Homo sapiens
[5] = target: T5, Short transient receptor potential channel 4 (Mus musculus, UniProt Q9QUQ5); assay: mouse TRPC4 channel activators, dose response, cell-based, HEK293 TRPC4/mu-opioid, Fluo-4 calcium (AID 434937); format: functional
T5 sequence (Q9QUQ5 whole entry): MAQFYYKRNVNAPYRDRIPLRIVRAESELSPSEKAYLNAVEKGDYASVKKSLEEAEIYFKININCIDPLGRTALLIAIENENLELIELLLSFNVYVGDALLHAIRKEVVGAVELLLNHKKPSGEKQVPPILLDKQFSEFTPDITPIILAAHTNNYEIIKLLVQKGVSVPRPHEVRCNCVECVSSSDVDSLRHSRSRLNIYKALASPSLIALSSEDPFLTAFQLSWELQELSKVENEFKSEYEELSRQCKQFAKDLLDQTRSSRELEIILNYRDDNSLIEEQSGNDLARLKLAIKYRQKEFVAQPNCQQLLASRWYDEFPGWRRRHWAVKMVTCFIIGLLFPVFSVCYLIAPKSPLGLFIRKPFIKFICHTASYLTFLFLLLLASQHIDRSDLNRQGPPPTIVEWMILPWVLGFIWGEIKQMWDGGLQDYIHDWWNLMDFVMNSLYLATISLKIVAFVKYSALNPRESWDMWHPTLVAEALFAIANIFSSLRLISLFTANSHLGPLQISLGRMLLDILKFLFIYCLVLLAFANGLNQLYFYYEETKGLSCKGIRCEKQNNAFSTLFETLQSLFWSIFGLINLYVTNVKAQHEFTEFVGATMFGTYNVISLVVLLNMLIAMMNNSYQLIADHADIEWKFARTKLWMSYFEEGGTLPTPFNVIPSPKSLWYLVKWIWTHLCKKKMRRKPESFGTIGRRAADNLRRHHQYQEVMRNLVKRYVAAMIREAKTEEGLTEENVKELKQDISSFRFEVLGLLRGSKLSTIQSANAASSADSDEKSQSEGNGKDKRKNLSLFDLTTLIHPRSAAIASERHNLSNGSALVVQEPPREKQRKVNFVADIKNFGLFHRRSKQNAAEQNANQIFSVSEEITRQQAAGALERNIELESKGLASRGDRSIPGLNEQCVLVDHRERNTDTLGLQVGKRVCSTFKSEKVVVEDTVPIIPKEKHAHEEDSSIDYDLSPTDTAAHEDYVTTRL

[6] = target: T6, High affinity choline transporter 1 (Homo sapiens, UniProt Q9GZV3); assay: CHT inhibitors, dose response, cell-based, 5-point CRC, membrane potential dye (AID 504840); format: functional
T6 sequence (Q9GZV3 whole entry): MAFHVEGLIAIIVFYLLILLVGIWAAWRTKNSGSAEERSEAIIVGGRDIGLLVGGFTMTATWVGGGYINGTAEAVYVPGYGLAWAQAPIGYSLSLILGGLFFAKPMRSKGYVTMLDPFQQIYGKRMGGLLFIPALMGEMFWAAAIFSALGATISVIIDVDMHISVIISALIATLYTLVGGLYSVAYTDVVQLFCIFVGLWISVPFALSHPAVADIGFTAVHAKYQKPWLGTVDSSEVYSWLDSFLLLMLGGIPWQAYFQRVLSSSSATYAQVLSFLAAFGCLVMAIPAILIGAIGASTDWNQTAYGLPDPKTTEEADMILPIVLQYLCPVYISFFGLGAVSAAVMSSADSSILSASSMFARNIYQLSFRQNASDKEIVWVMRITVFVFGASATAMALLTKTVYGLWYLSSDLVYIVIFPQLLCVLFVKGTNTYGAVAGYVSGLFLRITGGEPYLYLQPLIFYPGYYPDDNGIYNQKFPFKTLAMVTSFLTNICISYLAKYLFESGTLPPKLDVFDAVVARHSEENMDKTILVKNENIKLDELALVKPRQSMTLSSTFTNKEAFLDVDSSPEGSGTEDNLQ

[7] = intracellular Trypanosoma cruzi inhibitors in host cells – cell-based, plate reader, cherry-pick samples, set 3, dose response (AID 651818); format: functional;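 also: compounds incubated with infected cells for about four days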
[8] = target: T7, Microphthalmia-associated transcription factor (Homo sapiens, UniProt O75030); assay: TRPM1 promoter luciferase signal decrease, dose response, MITF inhibitor project, cell-based, SK-MEL-5, cherry-picked, set 3 (AID 493073); format: functional
T7 sequence (O75030 whole entry): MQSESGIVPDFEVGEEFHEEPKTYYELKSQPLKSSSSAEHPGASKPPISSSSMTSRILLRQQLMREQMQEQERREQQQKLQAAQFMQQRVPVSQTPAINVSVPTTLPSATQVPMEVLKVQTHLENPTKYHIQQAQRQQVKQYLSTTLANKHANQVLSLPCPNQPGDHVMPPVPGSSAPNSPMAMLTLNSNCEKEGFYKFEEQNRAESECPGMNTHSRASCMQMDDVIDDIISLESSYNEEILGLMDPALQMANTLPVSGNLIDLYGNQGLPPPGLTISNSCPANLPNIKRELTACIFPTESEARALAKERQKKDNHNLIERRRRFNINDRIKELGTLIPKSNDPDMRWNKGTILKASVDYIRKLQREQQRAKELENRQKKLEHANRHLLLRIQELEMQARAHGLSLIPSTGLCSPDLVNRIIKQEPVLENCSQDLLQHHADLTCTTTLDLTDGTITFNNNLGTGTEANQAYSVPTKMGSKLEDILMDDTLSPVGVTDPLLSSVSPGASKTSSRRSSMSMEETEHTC

[9] = Fluorescence-based cell-based high throughput dose response assay for inhibitors of the interaction of nucleotide-binding oligomerization domain containing 2 (NOD2) and the receptor-interacting serine-threonine kinase 2 (RIPK2).; format: functional, Homo sapiens

SMILES: Cc1n[nH]c(O)c1N=Nc1ccc(Br)c(Cl)c1
- IC50 (Caspase-3): 2.41 µM (active)
- IC50 [1]: 2.2 µM (active)
- IC50 [2]: 3.79 µM (active)
- IC50 [3]: 2.43 µM (active)

SMILES: COc1ccc2[nH]c3c(c2c1)CCNC3=O
- AC50 [4]: 0.845 µM (active)

SMILES: N=C1C[N+](CC23CC4CC(CC(C4)C2)C3)=NO1
- EC50 [5]: 1.06 µM (active)
- IC50 [6]: 13.5 µM (active)

SMILES: Cc1ccc(S(=O)(=O)N(C)C[C@H]2Oc3c(NC(=O)c4ccncc4)cccc3C(=O)N([C@H](C)CO)C[C@@H]2C)cc1
- AC50 [7]: 6.3 µM (active)

SMILES: Cc1[nH]n(-c2ccccc2)c(=O)c1N=Nc1cccc(C(=O)O)c1
- IC50 (Caspase-3): > 100 µM (inactive)
- IC50 [1]: 15.2 µM (active)
- IC50 [2]: 21.5 µM (active)
- IC50 [3]: 35.5 µM (active)
- AC50 [8]: 8.07 µM (active)

SMILES: C[C@@H]1CN([C@H](C)CO)C(=O)Cc2cc(NC(=O)Cc3ccccc3)ccc2O[C@@H]1CN(C)Cc1ccc(-c2ccccc2)cc1
- AC50 [7]: 6.35 µM (active)

SMILES: C[C@@H]1CN([C@@H](C)CO)C(=O)c2cccc(NS(=O)(=O)c3ccc(Cl)cc3)c2O[C@@H]1CN(C)Cc1ccc(-c2ccccc2)cc1
- AC50 [7]: 2.97 µM (active)

SMILES: CC(=O)OCC12CC(OC(=O)CC(C)C)C(C)=CC1OC1C(O)C(OC(C)=O)C2(C)C12CO2 (stereo not drawn)
- IC50 [9]: 49.8 µM (inactive)

SMILES: CCCN(CCC)CCNC(=O)c1cc2c(=O)n(C)c3ccccc3c2n1C
- AC50 [4]: 13.4 µM (active)

SMILES: C[C@@H]1CCCCO[C@H](CN(C)C(=O)Nc2ccccc2)[C@@H](C)CN([C@H](C)CO)C(=O)c2cc(NC(=O)Nc3ccc(C(F)(F)F)cc3)ccc2O1
- AC50 [7]: 4.2 µM (active)
